Laboratory results reported in patent publication US20040220260A1, “Use of mono-or di-esters of cinnamic acid or of one of its derivatives and vitamin C, as donor of NO” (L'OREAL S.A., priority 2003, published 2004).

Legend:
[1] = target: T1, inducible NO synthase (NOS2) (Homo sapiens, UniProt P35228); experiment: screening test of the modulation of induction of NOS2 by normal human keratinocytes (nitrite/nitrate measurement); format: cell-based; conditions: for % inhibition: normal human keratinocytes, NOS2 induced by cytokines, nitrites and nitrates measured
T1 construct: endogenous in cells; host or cells: normal human keratinocytes (primary culture), induced with interferon-γ and interleukin 1-β
T1 sequence (P35228 whole entry): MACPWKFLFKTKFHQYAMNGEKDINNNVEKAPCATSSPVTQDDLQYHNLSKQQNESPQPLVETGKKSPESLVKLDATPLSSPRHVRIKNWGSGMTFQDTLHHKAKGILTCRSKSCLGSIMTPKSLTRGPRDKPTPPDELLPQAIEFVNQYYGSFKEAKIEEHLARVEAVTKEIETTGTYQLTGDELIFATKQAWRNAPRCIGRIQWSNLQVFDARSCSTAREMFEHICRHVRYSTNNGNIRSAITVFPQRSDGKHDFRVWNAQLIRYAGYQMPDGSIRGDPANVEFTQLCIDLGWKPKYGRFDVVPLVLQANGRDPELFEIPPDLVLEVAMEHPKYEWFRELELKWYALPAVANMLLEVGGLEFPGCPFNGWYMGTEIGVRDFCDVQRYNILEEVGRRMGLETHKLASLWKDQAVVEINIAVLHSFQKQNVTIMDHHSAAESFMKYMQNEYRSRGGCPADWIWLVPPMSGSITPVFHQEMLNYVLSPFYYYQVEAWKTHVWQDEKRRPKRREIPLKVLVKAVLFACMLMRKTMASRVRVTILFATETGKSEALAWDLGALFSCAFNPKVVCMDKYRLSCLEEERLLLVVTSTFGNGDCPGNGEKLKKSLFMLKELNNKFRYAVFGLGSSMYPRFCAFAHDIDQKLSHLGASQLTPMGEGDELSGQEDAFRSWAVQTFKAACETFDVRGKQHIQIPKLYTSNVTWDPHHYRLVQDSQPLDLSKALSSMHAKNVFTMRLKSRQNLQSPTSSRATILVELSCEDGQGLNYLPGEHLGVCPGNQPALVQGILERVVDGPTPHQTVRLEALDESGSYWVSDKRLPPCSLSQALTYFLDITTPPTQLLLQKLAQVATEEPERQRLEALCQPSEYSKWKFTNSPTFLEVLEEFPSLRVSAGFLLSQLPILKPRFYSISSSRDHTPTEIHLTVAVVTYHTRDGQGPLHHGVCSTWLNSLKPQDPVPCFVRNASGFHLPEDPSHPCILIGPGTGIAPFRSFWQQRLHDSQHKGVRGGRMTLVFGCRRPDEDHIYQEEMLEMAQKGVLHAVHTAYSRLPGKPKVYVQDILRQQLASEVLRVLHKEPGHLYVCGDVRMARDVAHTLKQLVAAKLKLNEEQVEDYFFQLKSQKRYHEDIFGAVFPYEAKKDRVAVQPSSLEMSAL
Protocol: The activity of ascorbyl 2-O-cinnamate on the inducible NO synthase was evaluated in the assay described by Heck et al. (J.B.C., vol. 267, No. 30, 21277-21280, 25 Oct. 1992), a screening test of the modulation of induction of NOS2 by normal human keratinocytes. The objective of this test is, briefly, to evaluate the concentration of nitrate and nitrite after stimulation of the NO-synthase 2.
The test is carried out on a culture of normal human keratinocytes, derived from samples taken. The induction of the inducible NO synthase (NOS2) was caused by the addition of a combination of several cytokines to the culture medium. The product tested was applied at three concentrations varying from […] to 1000 μM.
The product tested was classed in one of the following two categories: inhibitor (I) or donor (D) of NO (nitric oxide) according to its capacity to diminish or increase, respectively, the quantity of nitrites and nitrates produced compared to the control signal […].
The following controls were introduced in the test:
A: positive control (induction of the enzyme): mixtures of interferon-γ (1000 u/ml) and interleukin 1-β (100 u/ml)
In order to determine the activity of the test product the quantity of stable NO reaction products (nitrites and nitrates) is measured with the aid of the “nitric calorimetric assay” kit sold by the Boehringer company under catalogue number 1756.28.
Ascorbyl 2-O-cinnamate was tested at concentrations of 100 μM, 500 μM and 1000 μM in ethanol

[2] = test system: normal human keratinocytes; experiment: cytotoxicity (% diminution of the signal compared with the control); format: cell-based; conditions: % diminution of signal vs control; not very cytotoxic 0-20%, acceptable up to 40%, not retained >40%
From the text: Moreover, the cytotoxicity was expressed as % diminution of the signal compared with the control. A product was considered to be not very cytotoxic from 0-20%, acceptable up to 40% and not retained for values >40%.

% inhibition ([1]; 100 μM in ethanol): 24.79% | % inhibition ([1]; 500 μM in ethanol): 53.74% | % inhibition ([1]; 1000 μM in ethanol): 74.4% | classification as inhibitor (I) or donor (D) of NO ([1]; according to capacity to diminish or increase the quantity of nitrites and nitrates produced compared to the control signal): NO donor effect
Structure (SMILES): O=C(/C=C/c1ccccc1)OC1=C(O)[C@@H]([C@@H](O)CO)OC1=O [Ascorbyl 2-O-cinnamate, ascorbyl 2-O-cinnamate]
cytotoxicity [2]: not toxic
